Columns and labels:
[1] = test system: A2780 ovarian cancer cells; set-up: method as in PMID 32391537; conditions: 48 h incubation, MTT; starred values; read-out: IC50 A2780, 48 h; cited from earlier work
Cyclic voltammetry = format: physicochemical; conditions: CH2Cl2, NBu4PF6
From the text: The redox properties of the various gold(III) bis(dithiolene) and bis(diselenolene) complexes were investigated by cyclic voltammetry using the same conditions, dichloromethane solutions and NBu4PF6 as supporting electrolyte. Under these conditions, the nature of the counter-ion, Ph4P^+ or Et4N^+, had no influence on the redox properties observed, due to ion exchange with the Bu4N^+ of the supporting electrolyte. Thus, only the result of one monoanion is included in Table 1, even if the two salts were analyzed. For all the investigated monoanionic bis(dithiolene) complexes, three redox processes are observed on the cyclic voltammograms. On the anodic scan, the two oxidation waves correspond to the oxidation of the monoanionic species into the neutral and to the monocationic complex. Most of these complexes had the tendency to deposit on the electrode once oxidized and frequently a strong desorption peak was observed on the reversible scan. This phenomenon occurs essentially for the complex with an exocyclic sulfur atom, [AuSR(=S)]^−1. On the cathodic scan, an irreversible process associated with the reduction in the monoanion into the dianion occurs (Scheme 2). […] The presence of oxygen instead of sulfur makes the oxidation of the monoanionic into the neutral species easier. On the other hand, the presence of electron-withdrawing substituents such as =C(CN)2 induces an anodic shift of the oxidation potentials by 300 mV, compared with the =O derivative, leading to a monoanion which is more difficult to oxidize than the other complexes of the series. […] Indeed, the potential difference between the second and the first oxidation potentials amounts to 470 mV and 410 mV for the =O and the =C(CN)2 derivatives, respectively, while for the =S analogues this value is smaller (170 mV). […] For comparison, we also investigated the redox behavior of Auranofin using the same experimental conditions in CH2Cl2 in the presence of NBu4PF6 as a supporting electrolyte. Using these conditions, upon anodic scan only one irreversible oxidation process is observed at 1.42 V vs. SCE. Therefore, all these monoanionic gold bis(dithiolene) and bis(diselenolene) complexes are easier to oxidize than Auranofin.
All reagents and materials from commercial sources were used without further purification. NMR spectra were recorded at room temperature using CDCl3 unless otherwise stated (Figures S7–S15). Chemical shifts are reported in ppm and ^1H NMR spectra were referenced to residual CHCl3 (7.26 ppm) and ^13C NMR spectra were referenced to CHCl3 (77.2 ppm). Mass spectra were recorded with an Agilent 6510 instrument for organics compounds and with a Thermo-Fisher Q-Exactive instrument for complexes by the Center Régional de Mesures Physiques de l’Ouest, Rennes. Cyclic voltammograms (CV)s were carried out on a 10^−3 M solution of complex in CH2Cl2-[NBu4] [PF6] 0.1 M. CVs were recorded on a Biologic SP-50 instruments at 0.1 Vs^−1 on a platinum disk electrode. Potentials were measured versus KCl Saturated Calomel Electrode (SCE). Column chromatography was performed using silica gel Merck 60 (70–260 mesh). The solvents were purified and dried by standard methods. The proligand 2-SEt(=C(CN2)), [72] and complexes [N][AuSMe(=S)], [73] [N][AuSEt(=S)], [74] [P][AuSEt(=O)], [75] [N][AuSeEt(=S)] [75] and [P][AuSPr(=S)] [76] were synthesized according to the previously reported procedure.

[2] = biological target: T1, thioredoxin reductase (TrxR) (Rattus norvegicus, UniProt O89049); assay: Thioredoxin reductase inhibition, colorimetric DTNB assay; format: biochemical; conditions: 0.1 nM–2 µM
T1 construct: purchased Sigma-Aldrich
T1 sequence (O89049 1-499): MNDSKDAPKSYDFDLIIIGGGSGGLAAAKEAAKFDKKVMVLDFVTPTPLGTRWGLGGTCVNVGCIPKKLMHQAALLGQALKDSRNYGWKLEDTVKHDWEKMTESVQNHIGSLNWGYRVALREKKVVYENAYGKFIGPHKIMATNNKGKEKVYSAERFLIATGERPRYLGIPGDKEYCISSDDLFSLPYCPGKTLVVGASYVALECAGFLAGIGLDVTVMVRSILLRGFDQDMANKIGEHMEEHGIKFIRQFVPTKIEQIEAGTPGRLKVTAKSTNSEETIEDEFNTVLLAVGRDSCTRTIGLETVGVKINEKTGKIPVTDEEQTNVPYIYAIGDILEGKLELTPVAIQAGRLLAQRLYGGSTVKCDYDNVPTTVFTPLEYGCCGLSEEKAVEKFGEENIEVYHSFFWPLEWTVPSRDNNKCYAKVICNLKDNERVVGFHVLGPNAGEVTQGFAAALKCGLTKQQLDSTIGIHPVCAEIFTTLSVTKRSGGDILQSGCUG
Method: The effect of the selected gold complexes on the activity of TrxR was evaluated by a colorimetric DTNB assay as previously described. […] The substituent on the nitrogen atom of the thiazoline ring ([P][AuSEt(=S)] vs. [P][AuSBu(=S)]) and the nature of the exocyclic atom ([P][AuSEt(=S)] vs. [P][AuSEt(=Se)]) seemed to influence the inhibitory effect on the enzyme. The exocyclic selenium atoms of [P][AuSEt(=Se)] seemed to disfavor the intermolecular interaction with the enzyme in relation with the peripheral thione group of [P][AuSEt(=S)].
The […] (TrxR) inhibition assays were performed using a commercial kit from Sigma-Aldrich, introducing minor modifications for a 96-well plate format. The assay is based on the reduction of DTNB (5,5′ dithiobis(2-nitrobenzoic acid)) into TNB (5-thio-2-nitrobenzoic acid) with the concomitant oxidation of NADPH, in a reaction catalyzed by TrxR [92]. The complexes were dissolved in DMSO to prepare serial concentrations in the range of 0.1 nM–2 µM. The reaction mixture (200 µL total volume) contained 11 μL assay buffer (phosphate buffer, pH 7.0 and 50 mM EDTA), 180 µL working buffer (phosphate buffer and 0.25 mM NADPH), 1 μL complexes’ solutions, 2 μL enzyme solution and 6 µL DTNB (0.1 M in DMSO). […] The formation of TNB was monitored at 412 nm with a plate spectrophotometer (Power Wave Xs, Bio-Tek).

## CC(=O)OC[C@H]1O[C@@H]([S-])[C@H](OC(C)=O)[C@@H](OC(C)=O)[C@@H]1OC(C)=O.CCP(CC)CC.[Au+] [Auranofin, reference compound]
[1]
  IC50: 430 ± 270 nM
Cyclic voltammetry
  irreversible oxidation process (anodic scan): 1.42 V vs. SCE
[2]
  IC50: 26 ± 10 nM

Reference: publication PMC9266914, “Broad Spectrum Functional Activity of Structurally Related Monoanionic Au(III) Bis(Dithiolene) Complexes” (International Journal of Molecular Sciences, 2022)
